The results in this text go back to US4436726A, “N-Acylpeptide compound, processes for the preparation thereof and the pharmaceutical compositions” (Fujisawa Pharmaceutical Co., Ltd., priority 1980, dated 1984).

The test system of test [1] is complement serum (guinea pig complement). In words: Anticomplementary activity (inhibition of hemolysis of sensitized erythrocytes). Type of test: biochemical. To be noted: 50% hemolysis inhibition, 37° C. As for the experimental part: The anticomplementary activity of the test compound was measured according to the test method as described in Experimental Immunochemistry, edited by E. A. Kabat and M. M. Mayer, 2nd ed., Springfield, III: C. C. Thomas (1961) pages 133-240.
A mixture of 1 ml of a 5-fold diluted solution of a Veronal buffer solution containing 1.5×10^-4 M Ca^2+ and 5×10^-4 M Mg^2+ and isotonic gelatin, 1.5 ml of complement serum (guinea pig complement) diluted 400 times with a physiological saline solution and 0.05 ml of a solution of a test compound (in this case, a test compound was dissolved in a physiological saline solution) was incubated at 37° C. for 30 minutes. To the said mixture there was added 0.4 ml of sensitized erythrocytes suspension containing 5×10^8 cells/ml and said mixture was incubated at 37° C. further for 60 minutes. After the incubation, the mixture was centrifuged in 3,000 rpm at 4° C. for 10 minutes.
The results are expressed in Table 1 as the concentration of each drugs inhibiting the hemolysis activity by 50% (IC50).

Test [2] relates to blood clot (fresh rabbit blood, urokinase, bovine thrombin). In words: Fibrinolytic activity (modified diluted whole blood clot lysis time method). As to conditions: 50 μl of test compound (300 μg/ml), 37° C. Type of test: biochemical. As for the experimental part:
The enhancement of the fibrinolytic activity of the test compounds was measured according to the modified diluted whole blood clot lysis time method described in
G. R. Fearnley, G. V. Balmforth, E. Fearnley: Clin. Sci. 16, 645-650 (1957)
I. S. Chohan et al: Thrombos. Diathes. Haemorrh. 33, 226 (1975) and
I. M. Nilsson et al: Handbook of Experimental Pharmacology 46, 110
Fresh rabbit blood was diluted 20 times with 1/15 M phosphate buffer (pH 7.4). A mixture of 400 μl of the diluted blood solution and 50 μl of a test compound (300 μg/ml) was incubated at 37° C. for 30 minutes. To the mixture were added 50 μl of urokinase solution (100 IU/ml) and 50 μl of bovine thrombin (100 N.I.H. u/ml). The clot produced in tubes was incubated at 37° C. for various periods of time. At the end of each incubation interval (15 minutes interval), 2.5 ml of distilled water was added to lyse erythrocytes released from clotted blood and absorbance (OD541) of the supernatant separated by centrifugation (3,000 rpm for 10 minutes) from the reaction mixture was measured. The fibrinolytic activity of the test compound was determined by the time in minutes needed for the complete lysis of the blood clot.
In the absence of a test compound, it took more than 2 hours to lyse blood clot in the above condition. However, blood clot was lysed in the presence of test compounds after 15 minutes (symbol: ++) and 45 minutes (symbol: +) incubation, respectively. Samples which were incapable of lysing blood clot within 1 hour incubation were expressed as symbol (-).

`CC(C)CCCCCCCCCCCC(=O)OC(CCCCCCCCCCCC(C)C)CC(=O)NCC(=O)N[C@@H](CO)C(=O)O` (stereo partly drawn) [Example 1, N-[N-[15-methyl-3-(13-methyltetradecanoyloxy)hexadecanoyl]glycyl]-L-serine]: in test [1], the “Anticomplementary Activity (IC50)” value is 1.0 µg/mL.

As for `CCCCCCCCCCCC(=O)OC(CCCCCCCCCCC)CC(=O)NCC(=O)N[C@@H](CO)C(=O)O` (stereo partly drawn) [Example 3, N-[N-(3-dodecanoyloxytetradecanoyl)glycyl]-L-serine], the “Anticomplementary Activity (IC50)” value in test [1] was 0.12 µg/mL. Same read-out and setting: then `CCCCCCCCCCCCCCCC(=O)OC(CCCCC)CC(=O)NCC(=O)N[C@@H](CO)C(=O)O` (stereo partly drawn) [Example 4, N-[N-(3-hexadecanoyloxyoctanoyl)glycyl]-L-serine], with 1.1 µg/mL; and `CCCCCCCCCCCCCCCC(=O)OC(CCCCCCCCCCCCCCC)CC(=O)NCCC(=O)N[C@H](C(=O)O)[C@@H](C)O` (stereo partly drawn) [Example 7, N-[N-(3-hexadecanoyloxyoctadecanoyl)-β-alanyl]-L-threonine], with 0.02 to 0.03 µg/mL; and `CC(C)CCCCCCCCCCCC(=O)OC(CCCCCCCCCCCC(C)C)CC(=O)NCCC(=O)N[C@H](C(=O)O)[C@@H](C)O` (stereo partly drawn) [Example 8, N-[N-[15-methyl-3-(13-methyltetradecanoyloxy)hexadecanoyl]-β-alanyl]-L-threonine], with 0.04 to 0.06 µg/mL.

Take `CC(C)CCCCCCCCCCCC(=O)OC(CCCCCCCCCCCC(C)C)CC(=O)NCCC(=O)N[C@@H](CO)C(=O)O` (stereo partly drawn) [Example 9, N-[N-[15-methyl-3-(13-methyltetradecanoyloxy)hexadecanoyl]-β-alanyl]-L-serine]: the “Anticomplementary Activity (IC50)” value in test [1] amounted to 0.1 µg/mL. Besides, the “Fibrinolytic Activity (time needed for complete lysis of the blood clot)” value (from here on “Fibrinolytic Activity”) in test [2] is given as “+ (45 minutes (symbol: +) incubation)”. For the compound `CCCCCCCCCCCCCCCC(=O)OC(CCCCCCCCCCCCCCC)CC(=O)NCCC(=O)N[C@@H](CO)C(=O)O` (stereo partly drawn) [Example 10, N-[N-(3-hexadecanoyloxyoctadecanoyl)-β-alanyl]-L-serine], the “Anticomplementary Activity (IC50)” value in test [1] lay in the range of 0.03 to 0.04 µg/mL. `CC(C)CCCCCCCCCCCC(=O)OC(CCCCCCCCCCCC(C)C)CC(=O)NCC(=O)N[C@H](C(=O)O)[C@@H](C)O` (stereo partly drawn) [Example 11, N-[N-[15-methyl-3-(13-methyltetradecanoyloxy)hexadecanoyl]glycyl]-L-threonine]: the “Anticomplementary Activity (IC50)” value in test [1] is 0.36 µg/mL. For the same compound, the “Fibrinolytic Activity” value in test [2] is listed as “+ (45 minutes (symbol: +) incubation)”. As for `CC(C)CCCCCCCCCCCC(=O)OC(CCCCCCCCCCCC(C)C)CC(=O)N[C@@H](C)C(=O)N[C@@H](CO)C(=O)O` (stereo partly drawn) [Example 12, N-[N-[15-methyl-3-(13-methyltetradecanoyloxy)hexadecanoyl]L-alanyl]-L-serine], the “Anticomplementary Activity (IC50)” value in test [1] came out at 0.59 µg/mL. Still for that read-out and setting: then `CC(C)CCCCCCCCCCCC(=O)OC(CCCCCCCCCCCC(C)C)CC(=O)N[C@@H](C)C(=O)N[C@H](C(=O)O)[C@@H](C)O` (stereo partly drawn) [Example 13, N-[N-[15-methyl-3-(13-methyltetradecanoyloxy)hexadecanoyl]-L-alanyl]-L-thr eonine], with 0.72 µg/mL; and `CCCCCCCCCCCCCCCC(=O)OC(CCCCCCCCCCCCCCC)CC(=O)N[C@@H](C)C(=O)N[C@H](C(=O)O)[C@@H](C)O` (stereo partly drawn) [Example 14, N-[N-(3-hexadecanoyloxyoctadecanoyl)-L-alanyl]-L-threonine], with 0.23 µg/mL. Take `CC(C)CCCCCCCCCCCC(=O)OC(CCCCCCCCCCCC(C)C)CC(=O)NCC(=O)N[C@@H](Cc1ccccc1)C(=O)O` (stereo partly drawn) [Example 15, N-[N-[15-methyl-3-(13-methyltetradecanoyloxy)hexadecanoyl]glycyl]-L-phenyl alanine]: the “Anticomplementary Activity (IC50)” value in test [1] came to 2.8 µg/mL. For the same compound, the “Fibrinolytic Activity” value in test [2] was “++ (blood clot was lysed in the presence of test compounds after 15 minutes (symbol: ++))”. Turning to `CC(C)CCCCCCCCCCCC(=O)OC(CCCCCCCCCCCC(C)C)CC(=O)NCCC(=O)N[C@@H](Cc1c[nH]cn1)C(=O)O` (stereo partly drawn) [Example 16, N-[N-[15-methyl-3-(13-methyltetradecanoyloxy)hexadecanoyl]-β-alanyl]-L-histidine], the “Anticomplementary Activity (IC50)” value in test [1] turned out to be 4.2 µg/mL. `CC(C)CCCCCCCCCCCC(=O)OC(CCCCCCCCCCCC(C)C)CC(=O)NCC(=O)N[C@@H](Cc1ccc(O)cc1)C(=O)O` (stereo partly drawn) [Example 18, N-[N-[15-methyl-3-(13-methyltetradecanoyloxy)hexadecanoyl]glycyl]-L-tyrosine]: in test [1], the “Anticomplementary Activity (IC50)” value was determined as 3.2 µg/mL. Moreover, in test [2], the “Fibrinolytic Activity” value is recorded as “+ (45 minutes (symbol: +) incubation)”. On to `CC(C)CCCCCCCCCCCC(=O)OC(CCCCCCCCCCCC(C)C)CC(=O)NCC(=O)O` (stereo not shown) [Example 19, N-[15-methyl-3-(13-methyltetradecanoyloxy)hexadecanoyl]glycine], for which, in test [1], the “Anticomplementary Activity (IC50)” value was 4.0 µg/mL. For the same compound, the “Fibrinolytic Activity” value in test [2] is given as “+ (45 minutes (symbol: +) incubation)”. With `CC(C)CCCCCCCCCCCC(=O)OC(CCCCCCCCCCCC(C)C)CC(=O)N[C@@H](CO)C(=O)O` (stereo partly drawn) [Example 20, N-[15-methyl-3-(13-methyltetradecanoyloxy)hexadecanoyl]-L-serine], the “Anticomplementary Activity (IC50)” value in test [1] came out at 2.8 µg/mL. For the same compound, the “Fibrinolytic Activity” value in test [2] is reported as “+ (45 minutes (symbol: +) incubation)”. In the same order, the values of `CCCCCCCCCCCCCCCC(=O)OC(CCCCCCCCCCCCCCC)CC(=O)N[C@@H](Cc1ccccc1)C(=O)O` (stereo partly drawn) [Example 26, N-(3-hexadecanoyloxyoctadecanoyl)-L-phenylalanine] are 3.5 µg/mL and “+ (45 minutes (symbol: +) incubation)”. The matching figures for `CCCCCCCCCCCCCCCC(=O)OC(CCCCCCCCCCCCCCC)CC(=O)NCC(=O)O` (stereo not shown) [Example 27, N-(3-hexadecanoyloxyoctadecanoyl)glycine]: 0.44 µg/mL and “+ (45 minutes (symbol: +) incubation)”. For the compound `CCCCCCCCCCCCCCCC(=O)OC(CCCCCCCCCCCCCCC)CC(=O)N[C@H](C(=O)N[C@H](C(=O)O)[C@@H](C)O)C(C)C` (stereo partly drawn) [Example 29, N-[N-(3-hexadecanoyloxyoctadecanoyl)-L-valyl]-L-threonine], the “Anticomplementary Activity (IC50)” value in test [1] came out at 0.59 µg/mL. For `CCCCCCCCCCCCCCCC(=O)OC(CCCCCCCCCCCCCCC)CC(=O)NCCC(=O)N[C@@H](Cc1ccccc1)C(=O)O` (stereo partly drawn) [Example 32, N-[N-(3-hexadecanoyloxyoctadecanoyl)-β-alanyl]-L-phenylalanine], in test [1], the “Anticomplementary Activity (IC50)” value was found to be 1.32 µg/mL. Also, the “Fibrinolytic Activity” value in test [2] is on record as “++ (blood clot was lysed in the presence of test compounds after 15 minutes (symbol: ++))”. The matching figures for `CCCCCCCCCCCCCCCC(=O)OC(CCCCCCCCCCCCCCC)CC(=O)NCCCCC(=O)N[C@H](C(=O)O)[C@@H](C)O` (stereo partly drawn) [Example 34, N-[5-(3-hexadecanoyloxyoctadecanoyl)aminovaleryl]-L-threonine]: 0.02 µg/mL and “+ (45 minutes (symbol: +) incubation)”.

With `CCCCCCCCCCCCCCCC(=O)OC(CCCCCCCCCCCCCC)C(=O)NCC(=O)N[C@@H](CO)C(=O)O` (stereo partly drawn) [Example 35, N-[N-(2-hexadecanoyloxyhexadecanoyl)glycyl]-L-serine], the “Anticomplementary Activity (IC50)” value in test [1] was determined as 0.03 µg/mL. Also, the “Fibrinolytic Activity” value in test [2] is reported as “+ (45 minutes (symbol: +) incubation)”. In the same order, the values of `CCCCCCCCCCCCCCCC(=O)OC(CCCCCCCCCCCCCC)C(=O)NCCC(=O)N[C@H](C(=O)O)[C@@H](C)O` (stereo partly drawn) [Example 36, N-[N-(2-hexadecanoyloxyhexadecanoyl)-β-alanyl]-L-threonine] are 0.08 µg/mL and “+ (45 minutes (symbol: +) incubation)”. In the same order, the values of `CCCCCCCCCCCCCCCC(=O)OC(CCCCCCCCCCCCCCC)CC(=O)NCC(=O)N[C@@H](Cc1ccccc1)C(=O)O` (stereo partly drawn) [Example 38, N-[N-(3-hexadecanoyloxyoctadecanoyl)glycyl]-L-phenylalanine] are 3.4 µg/mL and “+ (45 minutes (symbol: +) incubation)”.
